Data: a compilation of properties of binary mixtures (doi:10.1007/s10953-010-9562-5)

Experiment: xn = mol fraction of the nth substance listed
Details: 101 kPa

CCCC[N+]1(C)CCCC1.O=S(=O)([N-]S(=O)(=O)C(F)(F)F)C(F)(F)F + CC1COC(=O)O1
Details	electrical conductivity [S/m]	viscosity [mPa·s]
293.15 K, x2 = 0.68	0.843	12.36
293.15 K, x2 = 0.74	0.884	9.88
293.15 K, x2 = 0.84	0.908	6.05
293.15 K, x2 = 0.89	0.853	4.71
293.15 K, x2 = 0.95	0.692	3.65
293.15 K, x2 = 0.97	0.582	–
298.15 K, x2 = 0	0.364	68.16
298.15 K, x2 = 0.05	0.394	56.05
298.15 K, x2 = 0.11	0.425	47.09
298.15 K, x2 = 0.16	0.46	40.44
298.15 K, x2 = 0.21	0.497	35.42
298.15 K, x2 = 0.26	0.538	31.51
298.15 K, x2 = 0.47	0.73	20.25
298.15 K, x2 = 0.53	0.784	17.72
298.15 K, x2 = 0.58	0.839	15.23
298.15 K, x2 = 0.68	0.942	10.56
298.15 K, x2 = 0.74	0.982	8.51
298.15 K, x2 = 0.79	1	6.74
298.15 K, x2 = 0.84	0.997	5.29
298.15 K, x2 = 0.89	0.934	4.14
298.15 K, x2 = 0.95	0.757	3.26
298.15 K, x2 = 0.97	0.628	–
303.15 K, x2 = 0	0.426	54.05
303.15 K, x2 = 0.05	0.458	44.95
303.15 K, x2 = 0.11	0.494	38.15
303.15 K, x2 = 0.16	0.532	33.05
303.15 K, x2 = 0.26	0.618	26.04
303.15 K, x2 = 0.32	0.666	23.45
303.15 K, x2 = 0.37	0.717	21.15
303.15 K, x2 = 0.47	0.828	16.91
303.15 K, x2 = 0.53	0.886	14.85
303.15 K, x2 = 0.58	0.944	12.83
303.15 K, x2 = 0.68	1.05	9.03
303.15 K, x2 = 0.79	1.11	5.9
303.15 K, x2 = 0.89	1.02	3.7
303.15 K, x2 = 0.95	0.826	2.93
303.15 K, x2 = 0.97	0.652	–
308.15 K, x2 = 0	0.505	44.38
308.15 K, x2 = 0.05	0.54	36.9
308.15 K, x2 = 0.11	0.578	31.36
308.15 K, x2 = 0.16	0.619	27.23
308.15 K, x2 = 0.21	0.663	24.11
308.15 K, x2 = 0.26	0.711	21.64
308.15 K, x2 = 0.32	0.762	19.59
308.15 K, x2 = 0.42	0.872	16.04
308.15 K, x2 = 0.47	0.931	14.35
308.15 K, x2 = 0.53	0.992	12.68
308.15 K, x2 = 0.58	1.05	11.01
308.15 K, x2 = 0.63	1.11	9.39
308.15 K, x2 = 0.68	1.16	7.85
308.15 K, x2 = 0.74	1.2	6.44
308.15 K, x2 = 0.79	1.22	5.2
308.15 K, x2 = 0.84	1.2	4.17
308.15 K, x2 = 0.89	1.11	3.34
308.15 K, x2 = 0.95	0.892	2.68
308.15 K, x2 = 0.97	0.691	–
313.15 K, x2 = 0	0.57	35.76
313.15 K, x2 = 0.05	0.611	30.14
313.15 K, x2 = 0.11	0.654	25.92
313.15 K, x2 = 0.16	0.701	22.74
313.15 K, x2 = 0.26	0.803	18.29
313.15 K, x2 = 0.37	0.916	15.11
313.15 K, x2 = 0.42	0.975	13.68
313.15 K, x2 = 0.53	1.1	10.88
313.15 K, x2 = 0.58	1.16	9.5
313.15 K, x2 = 0.63	1.21	8.15
313.15 K, x2 = 0.68	1.26	6.87
313.15 K, x2 = 0.74	1.29	5.69
313.15 K, x2 = 0.89	1.18	3.02
313.15 K, x2 = 0.95	0.946	2.45
318.15 K, x2 = 0.11	–	21.73
318.15 K, x2 = 0.16	–	19.16
318.15 K, x2 = 0.21	–	17.18
318.15 K, x2 = 0.26	–	15.58
318.15 K, x2 = 0.32	–	14.22
318.15 K, x2 = 0.37	–	12.99
318.15 K, x2 = 0.42	–	11.81
318.15 K, x2 = 0.53	–	9.47
318.15 K, x2 = 0.58	–	8.3
318.15 K, x2 = 0.63	–	7.16
318.15 K, x2 = 0.68	–	6.06
318.15 K, x2 = 0.74	–	5.05
318.15 K, x2 = 0.79	–	4.16
318.15 K, x2 = 0.84	–	3.39
318.15 K, x2 = 0.95	–	2.26
